The text below walks through data of article PMC7073080, “Characterization of Convergent Suppression by UCL-2077 (3-(Triphenylmethylaminomethyl)pyridine), Known to Inhibit Slow Afterhyperpolarization, of erg-Mediated Potassium Currents and Intermediate-Conductance Calcium-Activated Potassium Channels” (International Journal of Molecular Sciences, 2020).

This assay has as its target T1, erg-mediated K+ channel (Kerg, KV11.1) (Rattus norvegicus, UniProt O08962).
T1 construct: gene Kcnh2; native channel in pituitary GH3 cells
T1 sequence (O08962 1-1163): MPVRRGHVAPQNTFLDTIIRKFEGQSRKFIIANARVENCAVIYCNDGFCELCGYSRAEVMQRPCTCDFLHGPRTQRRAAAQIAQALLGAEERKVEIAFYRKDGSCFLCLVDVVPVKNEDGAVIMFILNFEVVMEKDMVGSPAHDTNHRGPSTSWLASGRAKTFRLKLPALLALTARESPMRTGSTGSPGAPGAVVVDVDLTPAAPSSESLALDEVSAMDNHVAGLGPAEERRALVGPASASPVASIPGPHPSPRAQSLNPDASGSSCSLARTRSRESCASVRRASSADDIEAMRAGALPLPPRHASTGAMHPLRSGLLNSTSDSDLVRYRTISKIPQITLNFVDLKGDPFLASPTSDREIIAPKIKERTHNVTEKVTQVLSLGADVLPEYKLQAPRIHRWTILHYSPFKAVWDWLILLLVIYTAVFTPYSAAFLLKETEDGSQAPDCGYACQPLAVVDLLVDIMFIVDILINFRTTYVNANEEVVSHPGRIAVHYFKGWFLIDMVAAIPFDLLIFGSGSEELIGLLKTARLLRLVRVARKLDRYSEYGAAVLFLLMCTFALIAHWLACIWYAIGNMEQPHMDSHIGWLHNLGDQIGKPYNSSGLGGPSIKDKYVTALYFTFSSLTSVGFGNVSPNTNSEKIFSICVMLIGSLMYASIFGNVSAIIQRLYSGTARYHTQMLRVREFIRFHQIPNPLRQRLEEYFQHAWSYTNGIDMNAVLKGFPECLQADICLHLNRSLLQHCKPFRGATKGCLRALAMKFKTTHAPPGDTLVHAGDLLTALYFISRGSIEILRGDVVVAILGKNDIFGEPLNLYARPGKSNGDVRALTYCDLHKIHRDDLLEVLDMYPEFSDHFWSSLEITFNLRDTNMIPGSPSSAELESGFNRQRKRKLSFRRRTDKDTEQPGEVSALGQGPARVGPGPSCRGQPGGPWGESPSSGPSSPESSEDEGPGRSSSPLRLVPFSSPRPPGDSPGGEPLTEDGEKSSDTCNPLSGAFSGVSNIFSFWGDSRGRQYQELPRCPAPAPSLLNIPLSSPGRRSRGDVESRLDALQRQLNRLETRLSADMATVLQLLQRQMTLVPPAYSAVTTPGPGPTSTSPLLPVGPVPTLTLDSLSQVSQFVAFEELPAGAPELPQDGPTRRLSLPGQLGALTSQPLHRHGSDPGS
The experiment in a line: whole-cell patch clamp, concentration-response of IK(erg); KCNH2 siRNA knockdown. Type of assay: cell-based. Conditions: gh3 cells. Background: Patch clamp records ionic current or voltage across a cell membrane.

The molecule `c1ccc(C(NCc2cccnc2)(c2ccccc2)c2ccccc2)cc1` [UCL-2077, 3-(triphenylmethylaminomethyl)pyridine] had a concentration for half-maximal inhibition (IC50) of 4.7 µM.

As usually defined, the IC50 is the concentration that inhibits the measured activity by half. A high value points to lower potency.
